Key:
HepG2 cells = assay: In vitro anti-proliferative SRB assay, HepG2; type: cell-based, human; conditions: for IC50: Homo sapiens, HepG2, increasing concentrations up to 30 μM, mean ± SD of at least three independent experiments; for SI (CC50 HMLE/IC50 HepG2) / SI (CC50 L02/IC50 HepG2): selectivity index; for SI (CC50 HMLE/IC50 HepG2): HMLE vs HepG2; for SI (CC50 L02/IC50 HepG2): L02 vs HepG2
Method: (§1) HepG2 and MCF7 cells were grown in the Eagle’s minimum essential medium with Earle’s balanced salts (MEM-EBSS) medium, HeLa, A549 and L02 cells were grown in Dulbecco’s Modified Eagle Media (DMEM), SW1990 cells were grown in RPMI-1640 medium, and HMLE cell were grown in DMEM/F-12 medium. […]
(§2) Cells were seeded into 96-well plates (4000 cells/well) and incubated at 37 °C in a humidified 5% CO2 atmosphere. After 24 h, the cells were treated with different concentrations of the compounds for 48 h in triplicate to generate dose-response curves. Cell viability was evaluated using the sulforhodamine B (SRB) assay as previous described.

MCF-7 cells = assay: In vitro anti-proliferative SRB assay, MCF-7; type: cell-based, human; conditions: for IC50: Homo sapiens, MCF7, increasing concentrations up to 30 μM, mean ± SD of at least three independent experiments; for SI (CC50 HMLE/IC50 MCF7) / SI (CC50 L02/IC50 MCF7): selectivity index; for SI (CC50 HMLE/IC50 MCF7): HMLE vs MCF7; for SI (CC50 L02/IC50 MCF7): L02 vs MCF7
Method: as §1, §2

[1] = Cytotoxicity (SRB) against non-tumoral L02 cells; type: cell-based, human; conditions: human, L02 cells (non-tumoral human liver cell line); increasing concentrations up to 100 μM; mean ± SD of at least three independent experiments; read-out: Normal Human Cell Lines, CC50, L02
Method: (§3) All compounds were also evaluated for their cytotoxic activity against two non-tumoral human cell lines named human mammary epithelial cell (HMLE) and L02 (a human liver cell line) in Table 2 and SI values between the CC50 in non-tumoral cell lines and IC50 in tumoral cells calculated.
as §1
as §2, with “described. […] Etoposide was used as the positive control.” for “described.”

A549 cells = assay: In vitro anti-proliferative SRB assay, A549; type: cell-based, human; conditions: for IC50: Homo sapiens, A549, increasing concentrations up to 30 μM, mean ± SD of at least three independent experiments; for SI (CC50 HMLE/IC50 A549) / SI (CC50 L02/IC50 A549): selectivity index; for SI (CC50 HMLE/IC50 A549): HMLE vs A549; for SI (CC50 L02/IC50 A549): L02 vs A549
Method: as §1, §2

HeLa cells = assay: In vitro anti-proliferative SRB assay, HeLa; type: cell-based, human; conditions: for IC50: Homo sapiens, HeLa, increasing concentrations up to 30 μM, mean ± SD of at least three independent experiments; for SI (CC50 HMLE/IC50 Hela) / SI (CC50 L02/IC50 Hela): selectivity index; for SI (CC50 HMLE/IC50 Hela): HMLE vs HeLa; for SI (CC50 L02/IC50 Hela): L02 vs HeLa
Method: as §1, §2

[2] = Cytotoxicity (SRB) against non-tumoral HMLE cells; type: cell-based, human; conditions: human, HMLE cells (non-tumoral human mammary epithelial cells); increasing concentrations up to 100 μM; mean ± SD of at least three independent experiments; read-out: Normal Human Cell Lines, CC50, HMLE
Method: as §3, §1
as §2, with “described. […] Etoposide was used as the positive control.” for “described.”

SW1990 cells = assay: In vitro anti-proliferative SRB assay, SW1990; type: cell-based, human; conditions: for IC50: Homo sapiens, SW1990, increasing concentrations up to 30 μM, mean ± SD of at least three independent experiments; for SI (CC50 HMLE/IC50 SW1990) / SI (CC50 L02/IC50 SW1990): selectivity index; for SI (CC50 HMLE/IC50 SW1990): HMLE vs SW1990; for SI (CC50 L02/IC50 SW1990): L02 vs SW1990
Method: as §1, §2

Row | IC50 (HepG2 cells) [µM] | IC50 (MCF-7 cells) [µM] | melting point [°C] | IC50 (A549 cells) [µM] | IC50 (HeLa cells) [µM] | IC50 (SW1990 cells) [µM] | SMILES | SI (CC50 HMLE/IC50 HepG2) (HepG2 cells) | SI (CC50 L02/IC50 HepG2) (HepG2 cells) | SI (CC50 HMLE/IC50 MCF7) (MCF-7 cells) | SI (CC50 L02/IC50 MCF7) (MCF-7 cells) | CC50 at 48 h [1] [µM] | SI (CC50 HMLE/IC50 A549) (A549 cells) | SI (CC50 L02/IC50 A549) (A549 cells) | SI (CC50 HMLE/IC50 Hela) (HeLa cells) | SI (CC50 L02/IC50 Hela) (HeLa cells) | CC50 at 48 h [2] [µM] | SI (CC50 HMLE/IC50 SW1990) (SW1990 cells) | SI (CC50 L02/IC50 SW1990) (SW1990 cells)
1 | 21.6 ± 0.97 | 25.5 ± 0.78 | 105.4 to 107.3 | 27.2 ± 1.39 | 20.7 ± 0.78 | 28.38 ± 0.27 | COc1cccc(OC)c1/C=C/C(=O)c1cccc(F)c1 [b32, (E)-1-(3-Fluorophenyl)-3-(2,6-dimethoxyphenyl)prop-2-en-1-one] | 0.6 | 3.3 | 0.5 | 2.8 | 72 ± 12.1 | 0.4 | 2.7 | 0.6 | 3.5 | 11.9 ± 1.28 | 0.4 | 2.5
2 | 24.6 ± 0.36 | 32.2 ± 1.34 | 108.2 to 109.6 | > 30 | 17.4 ± 0.39 | > 30 | COc1cccc(OC)c1/C=C/C(=O)c1ccc(F)cc1 [b33, (E)-1-(4-Fluorophenyl)-3-(2,6-dimethoxyphenyl)prop-2-en-1-one] | 0.5 | 2.6 | 0.4 | 2.0 | 63.9 ± 13.8 | <0.4 | <2.1 | 0.7 | 3.7 | 12.7 ± 2.35 | <0.4 | <2.1
3 | 27.1 ± 0.88 | 29.8 ± 0.8 | 107.9 to 109.7 | > 30 | 18.4 ± 0.06 | > 30 | COc1cccc(OC)c1/C=C/C(=O)c1ccc(Cl)cc1 [b35, (E)-1-(4-Chlorophenyl)-3-(2,6-dimethoxyphenyl)prop-2-en-1-one] | 0.7 | 3.2 | 0.6 | 2.9 | 85.4 ± 6.86 | <0.6 | <2.8 | 1.0 | 4.6 | 17.7 ± 1.35 | <0.6 | <2.8
4 | 11.3 ± 1.45 | 23.3 ± 0.79 | 135.7 to 138.2 | 25 ± 3.17 | 13.4 ± 0.44 | 17.1 ± 0.57 | COc1cccc(OC)c1/C=C/C(=O)c1cccc(Br)c1 [b36, (E)-1-(3-Bromophenyl)-3-(2,6-dimethoxyphenyl)prop-2-en-1-one] | 1.2 | 5.4 | 0.6 | 2.6 | 61.2 ± 12.1 | 0.5 | 2.4 | 1.0 | 4.6 | 13.1 ± 1.21 | 0.8 | 3.6
5 | 11.7 ± 0.18 | 30.4 ± 0.71 | 111.1 to 112.7 | > 30 | 15.7 ± 1.09 | 15.4 ± 0.83 | COc1cccc(OC)c1/C=C/C(=O)c1ccc(Cl)cc1Cl [b37, (E)-1-(2,4-Dichlorophenyl)-3-(2,6-dimethoxyphenyl)prop-2-en-1-one] | 1.7 | >8.5 | 0.7 | >3.3 | > 100 | <0.7 | – | 1.3 | >6.4 | 19.8 ± 1.44 | 1.3 | >6.5
6 | 18.6 ± 1.24 | 29.6 ± 2.13 | 142.1 to 143.4 | 27.6 ± 0.58 | 17.6 ± 2.01 | 26.16 ± 0.08 | COc1cccc(OC)c1/C=C/C(=O)c1ccc(Cl)c(Cl)c1 [b38, (E)-1-(3,4-Dichlorophenyl)-3-(2,6-dimethoxyphenyl)prop-2-en-1-one] | 1.5 | >5.4 | 1.0 | >3.4 | > 100 | 1.0 | >3.6 | 1.6 | >5.7 | 28.3 ± 3.74 | 1.1 | >3.8

Continued, compound first:

Row | SMILES | IC50 (HepG2 cells) [µM] | IC50 (MCF-7 cells) [µM] | melting point [°C] | IC50 (A549 cells) [µM] | IC50 (HeLa cells) [µM] | IC50 (SW1990 cells) [µM] | SI (CC50 HMLE/IC50 HepG2) (HepG2 cells) | SI (CC50 L02/IC50 HepG2) (HepG2 cells) | SI (CC50 HMLE/IC50 MCF7) (MCF-7 cells) | SI (CC50 L02/IC50 MCF7) (MCF-7 cells) | CC50 at 48 h [1] [µM] | SI (CC50 HMLE/IC50 A549) (A549 cells) | SI (CC50 L02/IC50 A549) (A549 cells) | SI (CC50 HMLE/IC50 Hela) (HeLa cells) | SI (CC50 L02/IC50 Hela) (HeLa cells) | CC50 at 48 h [2] [µM] | SI (CC50 HMLE/IC50 SW1990) (SW1990 cells) | SI (CC50 L02/IC50 SW1990) (SW1990 cells)
7 | COc1cccc(OC)c1/C=C/C(=O)c1ccccc1O [b24, (E)-1-(2-Hydroxyphenyl)-3-(2,6-dimethoxyphenyl)prop-2-en-1-one] | 7.77 ± 0.08 | 10.7 ± 0.38 | 114.2 to 115.9 | 8.64 ± 0.31 | 13.4 ± 0.74 | 16.1 ± 0.32 | 1.2 | 3.1 | 0.8 | 2.3 | 24.2 ± 2.71 | 1.0 | 2.8 | 0.7 | 1.8 | 8.96 ± 0.44 | 0.6 | 1.5
8 | COc1cccc(OC)c1/C=C/C(=O)c1cccc(O)c1 [b25, (E)-1-(3-Hydroxyphenyl)-3-(2,6-dimethoxyphenyl)prop-2-en-1-one] | 7.27 ± 0.13 | 8.92 ± 0.25 | 138.1 to 139.7 | 12.7 ± 0.28 | 9.56 ± 0.33 | 21 ± 0.43 | 0.9 | 2.7 | 0.7 | 2.2 | 19.6 ± 1.29 | 0.5 | 1.5 | 0.7 | 2.1 | 6.31 ± 0.13 | 0.3 | 0.9
9 | COc1cccc(OC)c1/C=C/C(=O)c1ccc(O)cc1 [b26, (E)-1-(4-Hydroxyphenyl)-3-(2,6-dimethoxyphenyl)prop-2-en-1-one] | 14.4 ± 0.81 | 20.2 ± 0.3 | 189.6 to 191.4 | 23.8 ± 1.56 | 12.7 ± 0.81 | 20.8 ± 0.54 | 0.9 | 2.0 | 0.6 | 1.4 | 28.2 ± 1.69 | 0.5 | 1.2 | 1.0 | 2.2 | 12.6 ± 2.82 | 0.6 | 1.4
10 | COc1ccc(C(=O)/C=C/c2c(OC)cccc2OC)c(O)c1 [b28, (E)-1-(2-Hydroxy-4-methoxyphenyl)-3-(2,6-dimethoxyphenyl)prop-2-en-1-one] | 19.5 ± 0.79 | 28.4 ± 1.25 | 143.5 to 144.7 | 17.4 ± 0.97 | 17 ± 0.65 | 28.3 ± 0.26 | 0.8 | >5.1 | 0.6 | >3.5 | > 100 | 0.9 | >5.8 | 1.0 | >5.9 | 16.2 ± 2.48 | 0.6 | >3.5

From article PMC6271338, “Synthesis and Cytotoxic Evaluation of Alkoxylated Chalcones” (Molecules, 2014)
